Laboratory results: patent US5530126A, “Process for the preparation of substituted 6-(pyrazol-3yl)-1,4-benzoxazin-3-ones” (Monsanto Company, priority 1994, dated 1996)
Several values for one entry are separate records, joined by “and”; a condition that tells them apart may be missing. Equal entries are not always repeated.

What was measured:
Type in all cases: in vivo
Yellow nutsedge [1] = assay: Post-emergence herbicide test; details: Cyperus, read-out: % plant inhibition (Yens); for inhibition at 1120 g/ha: 1.12 kg/ha; for inhibition at 11210 g/ha: 11.21 kg/ha
Excerpt: (§1) Topsoil is placed in aluminum pans having holes in the bottom and compacted to a depth of 0.95 to 1.27 cm from the top of the pan. A predetermined number of seeds of each of several dicotyledonous and monocotyledonous annual plant species and/or vegetative propagules for the perennial plant species are placed on the soil and pressed into the soil surface. The seeds and/or vegetative propagules are covered with soil and leveled. The pans are then placed on a bench in the greenhouse and watered from below as needed. After the plants reach the desired age (two to three weeks), each pan, is removed individually to a spraying chamber and sprayed by means of an atomizer, operating at a spray pressure of 170.3 kPa (10 psig) at the application rates noted. In the spray solution is an amount of an emulsifying agent mixture to give a spray solution or suspension which contains about 0.4% by volume of the emulsifier. The spray solution or suspension contains a sufficient amount of the candidate chemical in order to give application rates of the active ingredient corresponding to those shown in Tables 8 and 8A, while applying a total amount of solution or suspension equivalent to 1870 L/Ha (200 gallons/acre). The pans were returned to the greenhouse and watered as before and the injury to the plants as compared to the control is observed at approximately 10-14 days (usually 11 days) and in some instances observed again at 24-28 days (usually 25 days) after spraying. The post-emergent herbicidal activity shown in these tables is the percent inhibition of each plant species.

Cocklebur [2] = assay: Post-emergence herbicide test; details: for inhibition at 11210 g/ha: 11.21 kg/ha
Excerpt: as §1

Barnyardgrass [3] = assay: Post-emergence herbicide test; details: Echinochloa crus-galli, read-out: % plant inhibition (Bygr); for inhibition at 11210 g/ha: 11.21 kg/ha
Excerpt: as §1

Wild buckwheat [4] = assay: Post-emergence herbicide test; details: Fallopia convolvulus, read-out: % plant inhibition (Wibw); for inhibition at 11210 g/ha: 11.21 kg/ha
Excerpt: as §1

Downy Brome [5] = assay: Post-emergence herbicide test; details: Bromus tectorum, read-out: % plant inhibition (Dobr); for inhibition at 11210 g/ha: 11.21 kg/ha
Excerpt: as §1

Morningglory [6] = assay: Post-emergence herbicide test; details: for inhibition at 1120 g/ha / inhibition at 11210 g/ha: Ipomoea, read-out: % plant inhibition (Mogl); for inhibition at 11210 g/ha: 11.21 kg/ha
Excerpt: as §1

Indian Mustard [7] = assay: Post-emergence herbicide test; details: Brassica juncea, read-out: % plant inhibition (Inmu); for inhibition at 11210 g/ha: 11.21 kg/ha
Excerpt: as §1

Seedling johnsongrass [8] = assay: Post-emergence herbicide test; details: Sorghum halepense, read-out: % plant inhibition (Sejg); for inhibition at 11210 g/ha: 11.21 kg/ha
Excerpt: as §1

Velvetleaf [9] = assay: Post-emergence herbicide test; details: for inhibition at 11210 g/ha: 11.21 kg/ha
Excerpt: as §1

Annual bluegrass [10] = assay: Post-emergence herbicide test; details: read-out: % plant inhibition (Anbg); for inhibition at 11210 g/ha: 11.21 kg/ha
Excerpt: as §1

Yellow nutsedge [11] = assay: Pre-emergence herbicide test; details: Cyperus, read-out: % plant inhibition (Yens); for inhibition at 1120 g/ha: 1.12 kg/ha; for inhibition at 11210 g/ha: 11.21 kg/ha
Procedure: (§2) The tests for pre-emergence herbicide activity are conducted as follows:
(§3) Topsoil is placed in an aluminum pan and compacted to a depth of 0.95 to 1.27 cm from the top of the pan. On the top of the soil is placed a predetermined number of seeds of each of several monocotyledonous and dicotyledonous annual plant species and/or vegetative propagules of various perennial plant species. A known amount of the active ingredient dissolved or suspended in an organic solvent, e.g., acetone, or water as carrier is then applied directly to the seed bed, which is then covered with a layer of untreated topsoil to level fill the pan. After treatment, the pans are moved to a greenhouse bench where they are watered from below as needed to give adequate moisture for germination and growth.
(§4) Approximately 10-14 days (usually 11 days) after seeding and treating, the pans are observed and the results (% inhibition) are recorded.
(§5) Tables 7 and 7A below summarize the results of the pre-emergence herbicidal activity tests of compounds of this invention in weeds. The herbicidal rating shown in these tables is the percent inhibition of each plant species. The plant species usually regarded as weeds which are utilized in one set of tests, the data for which are shown in the tables, are identified by letter headings above the columns in accordance with the following legend: […]

Cocklebur [12] = assay: Pre-emergence herbicide test; details: Xanthium strumarium, read-out: % plant inhibition (Cobu); for inhibition at 1120 g/ha: 1.12 kg/ha; for inhibition at 11210 g/ha: 11.21 kg/ha
Procedure: as §2, §3, §4, §5

Barnyardgrass [13] = assay: Pre-emergence herbicide test; details: Echinochloa crus-galli, read-out: % plant inhibition (Bygr); for inhibition at 1120 g/ha: 1.12 kg/ha; for inhibition at 11210 g/ha: 11.21 kg/ha
Procedure: as §2, §3, §4, §5

Wild buckwheat [14] = assay: Pre-emergence herbicide test; details: Fallopia convolvulus, read-out: % plant inhibition (Wibw); for inhibition at 1120 g/ha: 1.12 kg/ha; for inhibition at 11210 g/ha: 11.21 kg/ha
Procedure: as §2, §3, §4, §5

Downy Brome [15] = assay: Pre-emergence herbicide test; details: Bromus tectorum, read-out: % plant inhibition (Dobr); for inhibition at 1120 g/ha: 1.12 kg/ha; for inhibition at 11210 g/ha: 11.21 kg/ha
Procedure: as §2, §3, §4, §5

Morningglory [16] = assay: Pre-emergence herbicide test; details: Ipomoea, read-out: % plant inhibition (Mogl); for inhibition at 1120 g/ha: 1.12 kg/ha; for inhibition at 11210 g/ha: 11.21 kg/ha
Procedure: as §2, §3, §4, §5

Indian Mustard [17] = assay: Pre-emergence herbicide test; details: Brassica juncea, read-out: % plant inhibition (Inmu); for inhibition at 1120 g/ha: 1.12 kg/ha; for inhibition at 11210 g/ha: 11.21 kg/ha
Procedure: as §2, §3, §4, §5

Seedling johnsongrass [18] = assay: Pre-emergence herbicide test; details: Sorghum halepense, read-out: % plant inhibition (Sejg); for inhibition at 1120 g/ha: 1.12 kg/ha; for inhibition at 11210 g/ha: 11.21 kg/ha
Procedure: as §2, §3, §4, §5

Velvetleaf [19] = assay: Pre-emergence herbicide test; details: Abutilon theophrasti, read-out: % plant inhibition (Vele); for inhibition at 1120 g/ha: 1.12 kg/ha; for inhibition at 11210 g/ha: 11.21 kg/ha
Procedure: as §2, §3, §4, §5

Annual bluegrass [20] = assay: Pre-emergence herbicide test; details: read-out: % plant inhibition (Anbg); for inhibition at 1120 g/ha: 1.12 kg/ha; for inhibition at 11210 g/ha: 11.21 kg/ha
Procedure: as §2, §3, §4, §5

[21] = Xanthium strumarium, read-out: % plant inhibition (Cobu)
[22] = Abutilon theophrasti, read-out: % plant inhibition (Vele)

| Structure (SMILES) | inhibition at 11210 g/ha (Yellow nutsedge [1]) [%] | inhibition at 11210 g/ha (Cocklebur [2]; [21]) [%] | inhibition at 11210 g/ha (Barnyardgrass [3]) [%] | inhibition at 11210 g/ha (Wild buckwheat [4]) [%] | inhibition at 11210 g/ha (Downy Brome [5]) [%] | inhibition at 11210 g/ha (Morningglory [6]) [%] | inhibition at 11210 g/ha (Indian Mustard [7]) [%] | inhibition at 11210 g/ha (Seedling johnsongrass [8]) [%] | inhibition at 11210 g/ha (Velvetleaf [9]; [22]) [%] | inhibition at 11210 g/ha (Annual bluegrass [10]) [%] | inhibition at 11210 g/ha (Yellow nutsedge [11]) [%] | inhibition at 11210 g/ha (Cocklebur [12]) [%] | inhibition at 11210 g/ha (Barnyardgrass [13]) [%] | inhibition at 11210 g/ha (Wild buckwheat [14]) [%] | inhibition at 11210 g/ha (Downy Brome [15]) [%] | inhibition at 11210 g/ha (Morningglory [16]) [%] | inhibition at 11210 g/ha (Indian Mustard [17]) [%] | inhibition at 11210 g/ha (Seedling johnsongrass [18]) [%] | inhibition at 11210 g/ha (Velvetleaf [19]) [%] | inhibition at 11210 g/ha (Annual bluegrass [20]) [%] | also measured |
| --- | --- | --- | --- | --- | --- | --- | --- | --- | --- | --- | --- | --- | --- | --- | --- | --- | --- | --- | --- | --- | --- |
| Cn1nc(-c2cc(/C=C/C(=O)O)c(Cl)cc2F)c(Cl)c1C(F)(F)F [Compound 351] | – | – | – | – | – | – | – | – | – | – | – | – | – | – | – | – | – | – | – | – | inhibition at 1120 g/ha (Yellow nutsedge [1]): 30%; inhibition at 1120 g/ha (Cocklebur [2]; Xanthium strumarium, 1.12 kg/ha, read-out: % plant inhibition (Cobu)): 100%; inhibition at 1120 g/ha (Barnyardgrass [3]; 1.12 kg/ha): 70%; inhibition at 1120 g/ha (Wild buckwheat [4]; 1.12 kg/ha): 100%; inhibition at 1120 g/ha (Downy Brome [5]; 1.12 kg/ha): 40%; inhibition at 1120 g/ha (Morningglory [6]; 1.12 kg/ha): 100%; inhibition at 1120 g/ha (Indian Mustard [7]; 1.12 kg/ha): 100%; inhibition at 1120 g/ha (Seedling johnsongrass [8]; 1.12 kg/ha): 60%; inhibition at 1120 g/ha (Velvetleaf [9]; Abutilon theophrasti, 1.12 kg/ha, read-out: % plant inhibition (Vele)): 100%; inhibition at 1120 g/ha (Annual bluegrass [10]; 1.12 kg/ha): 30%; inhibition at 1120 g/ha (Yellow nutsedge [11]): 0%; inhibition at 1120 g/ha (Cocklebur [12]): 80%; inhibition at 1120 g/ha (Barnyardgrass [13]): 0%; inhibition at 1120 g/ha (Wild buckwheat [14]): 100%; inhibition at 1120 g/ha (Downy Brome [15]): 0%; inhibition at 1120 g/ha (Morningglory [16]): 80%; inhibition at 1120 g/ha (Indian Mustard [17]): 100%; inhibition at 1120 g/ha (Seedling johnsongrass [18]): 0%; inhibition at 1120 g/ha (Velvetleaf [19]): 100%; inhibition at 1120 g/ha (Annual bluegrass [20]): 0% |
| Cn1nc(C(F)(F)Cl)c(Cl)c1-c1ccc(Cl)cc1 [Compound 67] | 20 | 20 | 40 | 100 | 40 | 70 | 40 | 80 | 80 | 20 | 0 | 0 | 0 | 90 | 40 | 90 | 50 | 40 | 80 | 40 | – |
| Cn1nc(C(F)(F)F)c(Cl)c1-c1cc(F)c([N+](=O)[O-])cc1F [Compound 70] | 0 | 30 | 40 | – | 10 | 40 | 20 | 10 | 50 | 10 | 0 | 20 | 40 | 80 | 20 | 80 | 80 | 80 | 90 | 40 | – |
| Cn1nc(C(F)(F)F)c(Cl)c1-c1ccc([N+](=O)[O-])cc1 [Compound 65] | 0 | 40 | 70 | 70 | 10 | 50 | 30 | 50 | 70 | 0 | 0 | 0 | 30 | 80 | 0 | 20 | – | 70 | 90 | 70 | – |
| Cn1nc(C(F)(F)F)c(Br)c1-c1cc(F)ccc1F [Compound 68] | 0 | 0 | 0 | 0 | 0 | 0 | 0 | 0 | 0 | 0 | 30 | 0 | 10 | – | 0 | 30 | 0 | 10 | 40 | 0 | – |
| Cn1nc(C(F)(F)F)c(Cl)c1-c1cc(F)c(Cl)cc1Cl [Compound 80] | 0 | 10 | 0 | – | 0 | 10 | 0 | 0 | 60 | 0 | 0 | 60 | 70 | 90 | 70 | 60 | 80 | 80 | 100 | 90 | – |
| Cn1nc(-c2cc(F)c(Cl)cc2Cl)c(Cl)c1C(F)(F)F [Compound 84] | 10 | 20 | 10 | – | 0 | 50 | 0 | 40 | 100 | 10 | 30 | 80 | 100 | 100 | 100 | 90 | 100 | 100 | 100 | 100 | – |
| Cn1nc(-c2cc(NC(=O)C3(Br)CC3)c(Cl)cc2F)c(Cl)c1C(F)(F)F [Compound 500, cyclopropanecarboxamide,-1-bromo-N-[2-chloro-5-[4-chloro-1-methyl-5-(trifluoromethyl)-1H-pyrazol-3-yl]-4-fluorophenyl]-] | 0 | – | – | – | – | – | – | 90 | – | 50 | 0 | 40 | 30 | 90 | 80 | 60 | 30 | 70 | 70 | 10 | – |
| Cn1nc(-c2cc(OCC(=O)OC(C)(C)C)c(Cl)cc2F)c(Cl)c1C(F)(F)F [Compound 294, (2-Chloro-5-(4-chloro-1-methyl-5-(trifluoromethyl)-1H-pyrazol-3-yl)-4-fluorophenoxy)acetic acid, 1,1-dimethylethyl ester] | – | – | – | – | – | – | – | – | – | – | – | – | – | – | – | – | – | – | – | – | inhibition at 1120 g/ha (Yellow nutsedge [1]): 0%; % plant inhibition (Cobu) (Cocklebur [2]; 1.12 kg/ha): 50%; % plant inhibition (Mogl) (Morningglory [6]; 1.12 kg/ha): 90%; inhibition at 1120 g/ha (Morningglory [6]; 1.12 kg/ha): 80%; % plant inhibition (Vele) (Velvetleaf [9]; 1.12 kg/ha): 50% and 80%; inhibition at 1120 g/ha (Yellow nutsedge [11]): 0%; inhibition at 1120 g/ha (Cocklebur [12]): 80%; inhibition at 1120 g/ha (Barnyardgrass [13]): 20%; inhibition at 1120 g/ha (Wild buckwheat [14]): 90%; inhibition at 1120 g/ha (Downy Brome [15]): 20%; inhibition at 1120 g/ha (Morningglory [16]): 70%; inhibition at 1120 g/ha (Indian Mustard [17]): 0%; inhibition at 1120 g/ha (Seedling johnsongrass [18]): 20%; inhibition at 1120 g/ha (Velvetleaf [19]): 70%; inhibition at 1120 g/ha (Annual bluegrass [20]): 0% |
